In PubChem BioAssay (NCI):
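Briefly, cells in 96-well plates were exposed to five compound concentrations for 48 h, and endpoints were estimated by linear interpolation. Here, GI50 denotes the concentration required for 50% inhibition of growth. The concentration for full growth arrest is given as TGI.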

Tests used:
Experiment in all cases: DTP human tumour cell line panel, 48 h
[1] = system: HOP-62 NSCLC
[2] = system: NCI-H23 lung
[3] = system: SN12C renal
[4] = system: MALME-3M melanoma
[5] = system: HL-60(TB) leukemia
[6] = system: UO-31 renal
[7] = system: SK-OV-3 ovarian
[8] = system: SF-295 CNS
[9] = system: HCC-2998 colon
[10] = system: NCI-H522 lung

| Structure (SMILES) | TGI [1] | TGI [2] | TGI [3] | TGI [4] | TGI [5] | TGI [6] | TGI [7] | TGI [8] | TGI [9] | TGI [10] | GI50 [1] | GI50 [2] | GI50 [3] | GI50 [5] | GI50 [6] | GI50 [7] | GI50 [10] | GI50 [8] | GI50 [9] | GI50 [4] |
| --- | --- | --- | --- | --- | --- | --- | --- | --- | --- | --- | --- | --- | --- | --- | --- | --- | --- | --- | --- | --- |
| CC(C)=CC(=O)Cc1nc2cc(C)c(C)cc2[nH]c1=O | > 100 µM | > 100 µM | > 100 µM | > 100 µM | > 100 µM | > 100 µM | > 100 µM | > 100 µM | > 100 µM |  |  |  |  |  |  |  |  |  |  |  |
| CC1OC(OCC2COC(O)(Oc3c(-c4ccc(O)c(O)c4)oc4cc(O)cc(O)c4c3=O)C(O)C2O)C(O)C(O)C1O (stereo unspecified) | > 100 µM | > 100 µM | > 100 µM | > 100 µM | > 100 µM | > 100 µM | > 100 µM | > 100 µM | > 100 µM |  |  |  |  |  |  |  |  |  |  |  |
| CN(C)CC1(C)CC/C(=C\c2ccccc2)C1=O (stereo unspecified) | > 100 µM | > 100 µM | > 100 µM | > 100 µM |  | > 100 µM |  | > 100 µM | > 100 µM | > 100 µM |  |  |  |  |  |  |  |  |  |  |
| CN(C)CCNC(=O)c1cccc2[nH]c(-c3ccccc3)nc12 | 52.8 µM | 32.6 µM | 43.7 µM |  | 54.3 µM | 27.7 µM | 56.3 µM | > 100 µM | 29.1 µM |  |  |  |  |  |  |  |  |  |  |  |
| Cc1ccc(C)c(NC(=O)CC/C(=N\NC(=O)C(N)=O)C(C)C(=O)c2ccc(O)cc2)c1 (stereo unspecified) | > 100 µM | > 100 µM | > 100 µM | > 100 µM | > 100 µM | > 100 µM | > 100 µM | > 100 µM | > 100 µM |  |  |  |  |  |  |  |  |  |  |  |
| COc1cc(C(=O)c2cc3c(cc2C)OCO3)cc(OC)c1OC | > 100 µM | > 100 µM | > 100 µM |  | 0.152 µM | > 100 µM | > 100 µM | > 100 µM | > 100 µM | 3.9 µM | 0.17 µM | 319 nM | 0.289 µM | 0.0329 µM | 0.624 µM | 0.0874 µM | 0.26 µM | 0.102 µM | 218 nM |  |
| C=C(C)[C@@H]1CC[C@]2(C)[C@H](CC[C@@H]3[C@H]4[C@H]5OC[C@@]4(CCC5(C)C)CC[C@]32C)[C@@]1(C)CCCN | 4.42 µM | 3.53 µM | 3.2 µM | 3.45 µM |  | 2.76 µM |  | 3.22 µM | 2.91 µM |  | 2 µM | 1770 nM | 1.63 µM |  | 1.42 µM |  |  | 1.78 µM | 1490 nM | 1.77 µM |
| O=C(Nc1nc2ncn(CC(COc3ccccc3)OC(=O)c3ccccc3)c2c(=O)[nH]1)c1ccccc1 (stereo unspecified) | > 100 µM |  | > 100 µM | > 100 µM | > 100 µM | > 100 µM | > 100 µM | > 100 µM |  | > 100 µM |  |  |  |  |  |  |  |  |  |  |
| COc1ccc2c(c1)CCC1C2CC[C@]2(C)/C(=N/OC(=O)Cc3ccccc3)CCC12 (stereo partly specified) | 31.6 µM | 32.7 µM | 43.6 µM | 37.4 µM |  | 43.8 µM | 72.1 µM | 33.8 µM | 35.6 µM | 32.8 µM | 17.2 µM | 16200 nM | 20.6 µM |  | 19.2 µM | 28.7 µM | 12.2 µM | 16.7 µM | 19800 nM | 20.7 µM |
| NCc1nnn(Cc2ccccc2)c1N | > 100 µM | > 100 µM | > 100 µM | > 100 µM | > 100 µM |  | > 100 µM | > 100 µM |  | > 100 µM |  |  |  |  |  |  |  |  |  |  |
| CC1C=CC(=O)C(n2cc(F)c(=O)[nH]c2=O)O1 (stereo unspecified) | 45.7 µM | 40.7 µM | 38.4 µM | 35.5 µM | 47.9 µM | 30 µM | 61 µM |  |  |  |  |  |  |  |  |  |  |  |  |  |
| COc1ccc2nc3ccccc3c(NCCCCCCN(C)CCCl)c2c1 | 3.03 µM | 1.04 µM | 1.75 µM | 2.06 µM |  |  | 2.04 µM | 2.88 µM | 1.98 µM | 1.58 µM |  |  |  |  |  |  |  |  |  |  |
| COc1ccc(C2=NN(C(C)=O)C(c3cn(-c4ccccc4)nc3-c3ccc(Cl)cc3)C2)cc1 (stereo unspecified) | > 100 µM | > 100 µM | > 100 µM |  | > 100 µM | > 100 µM | > 100 µM | > 100 µM | > 100 µM |  | > 100 µM | > 100000 nM | > 100 µM | > 100 µM | > 100 µM | 4.64 µM |  | 13.2 µM | > 100000 nM |  |
| CCC(C)C(NC(=O)C1CCCN1C(=O)C(NC(=O)C(C)N)C(C)C)C(N)=O (stereo unspecified) | > 100 µM |  | > 100 µM | > 100 µM | > 100 µM | > 100 µM | > 100 µM | > 100 µM |  | > 100 µM | > 100 µM |  | > 100 µM | > 100 µM | > 100 µM | > 100 µM | > 100 µM | > 100 µM |  | 52.3 µM |
